Assay results reported in patent US20240002344A1, “COMPOUNDS, COMPOSITIONS AND METHODS FOR HISTONE LYSINE DEMETHYLASE INHIBITION” (FibroGen, Inc., priority 2020, published 2024).

Assays:
recombinant human KDM5B = target: T1, recombinant human KDM5B (Homo sapiens, UniProt Q9UGL1); assay: 14CO2 capture enzymatic assay (decarboxylation of [1-14C] αKG), KDM5B; format: biochemical; conditions: 10 μM [1-14C] αKG, 90 μM non-labeled αKG, 50 μM peptide substrate, 37° C., 1 hour, final 1% DMSO
T1 sequence (Q9UGL1 374-755 limits assumed): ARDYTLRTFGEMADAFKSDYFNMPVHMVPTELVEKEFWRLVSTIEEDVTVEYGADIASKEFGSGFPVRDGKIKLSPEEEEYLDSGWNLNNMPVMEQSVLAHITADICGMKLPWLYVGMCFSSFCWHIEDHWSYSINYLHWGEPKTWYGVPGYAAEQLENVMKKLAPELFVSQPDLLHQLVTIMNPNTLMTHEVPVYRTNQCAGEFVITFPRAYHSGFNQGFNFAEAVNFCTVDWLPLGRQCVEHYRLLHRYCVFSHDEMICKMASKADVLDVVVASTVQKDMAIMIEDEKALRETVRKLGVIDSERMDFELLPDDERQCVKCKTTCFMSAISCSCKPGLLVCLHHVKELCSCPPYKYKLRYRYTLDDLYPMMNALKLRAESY
In short: (§1)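 Truncated recombinant human KDM5B (H3K4me3 peptide) or KDM4A (H3K9me3 peptide), 50 μM peptide, with 10 μM [1-14C]αKG plus 90 μM unlabeled αKG, 10 μM Fe(SO4), 2 mM ascorbate in pH 7.4 HEPES, 1 h at 37 °C, 1% DMSO. Released 14CO2 trapped on Ba(OH)2 filter; IC50 by non-linear fit.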

recombinant human KDM4A = target: T2, recombinant human KDM4A (Homo sapiens, UniProt O75164); assay: 14CO2 capture enzymatic assay (decarboxylation of [1-14C] αKG), KDM4A; format: biochemical; conditions: 10 μM [1-14C] αKG, 90 μM non-labeled αKG, 50 μM peptide substrate, 37° C., 1 hour, final 1% DMSO
T2 construct: made in house
T2 sequence (O75164 1-359 limits assumed): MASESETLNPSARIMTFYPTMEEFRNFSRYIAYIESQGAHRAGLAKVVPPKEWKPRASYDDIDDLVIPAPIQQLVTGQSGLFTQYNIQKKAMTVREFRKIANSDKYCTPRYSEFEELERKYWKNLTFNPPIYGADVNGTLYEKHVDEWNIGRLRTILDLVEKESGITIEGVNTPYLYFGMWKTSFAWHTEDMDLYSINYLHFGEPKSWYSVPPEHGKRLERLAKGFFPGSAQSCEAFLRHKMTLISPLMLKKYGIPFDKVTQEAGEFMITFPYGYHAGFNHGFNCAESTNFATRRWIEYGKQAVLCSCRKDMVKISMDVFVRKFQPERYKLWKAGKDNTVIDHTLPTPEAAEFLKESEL
In short: as §1

IC50 (recombinant human KDM5B) [nM] | IC50 (recombinant human KDM4A) [nM] | Compound
250 | > 40000 | N#Cc1cc(-c2ccc(F)c3ccccc23)nc(C(=O)CCC(=O)O)c1O [Example 109, 4-[4-Cyano-6-(4-fluoro-naphthalen-1-yl)-3-hydroxy-pyridin-2-yl]-4-oxo-butyric acid]
270 | > 40000 | N#Cc1cc(-c2ccc(Cl)c3ccccc23)nc(C(=O)CCC(=O)O)c1O [Example 110, 4-[6-(4-Chloro-naphthalen-1-yl)-4-cyano-3-hydroxy-pyridin-2-yl]-4-oxo-butyric acid]
320 | > 40000 | N#Cc1cc(-c2ccc(-c3ccccc3)c3ccccc23)nc(C(=O)CCC(=O)O)c1O [Example 111, 4-[4-Cyano-3-hydroxy-6-(4-phenyl-naphthalen-1-yl)-pyridin-2-yl]-4-oxo-butyric acid]
390 | > 40000 | N#Cc1cc(-c2cccc3ncccc23)nc(C(=O)CCC(=O)O)c1O [Example 112, 4-(4-Cyano-3-hydroxy-6-quinolin-5-yl-pyridin-2-yl)-4-oxo-butyric acid]
230 | > 40000 | Cc1ccc(-c2cc(C#N)c(O)c(C(=O)CCC(=O)O)n2)c2ccccc12 [Example 113, 4-[4-Cyano-3-hydroxy-6-(4-methyl-naphthalen-1-yl)-pyridin-2-yl]-4-oxo-butyric acid]
140 | 10000 | COc1cccc(-c2cc(C#N)c(O)c(C(=O)CCC(=O)O)n2)c1Cl [Example 114, 4-[6-(2-Chloro-3-methoxy-phenyl)-4-cyano-3-hydroxy-pyridin-2-yl]-4-oxo-butyric acid]
230 | > 40000 | N#Cc1cc(-c2ccc(C(F)(F)F)cc2Cl)nc(C(=O)CCC(=O)O)c1O [Example 115, 4-[6-(2-Chloro-4-trifluoromethyl-phenyl)-4-cyano-3-hydroxy-pyridin-2-yl]-4-oxo-butyric acid]
100 | > 40000 | N#Cc1cc(-c2cccc3cccnc23)nc(C(=O)CCC(=O)O)c1O [Example 116, 4-(4-Cyano-3-hydroxy-6-quinolin-8-yl-pyridin-2-yl)-4-oxo-butyric acid]
280 | > 40000 | N#Cc1cc(Cc2ccccc2)cc(C(=O)CCC(=O)O)c1O [Example 117, 4-(5-Benzyl-3-cyano-2-hydroxy-phenyl)-4-oxo-butyric acid]
160 | > 40000 | N#Cc1cc(-c2ccc(Cl)cc2)cc(C(=O)CCC(=O)O)c1O [Example 118, 4-(4′-Chloro-5-cyano-4-hydroxy-biphenyl-3-yl)-4-oxo-butyric acid]
280 | > 40000 | N#Cc1cc(-c2ccccc2Cl)cc(C(=O)CCC(=O)O)c1O [Example 119, 4-(2′-Chloro-5-cyano-4-hydroxy-biphenyl-3-yl)-4-oxo-butyric acid]
150 | > 40000 | N#Cc1cc(-c2cccc(Cl)c2)cc(C(=O)CCC(=O)O)c1O [Example 120, 4-(3′-Chloro-5-cyano-4-hydroxy-biphenyl-3-yl)-4-oxo-butyric acid]
80 | > 40000 | N#Cc1cc(Cc2c(Cl)cccc2Cl)cc(C(=O)CCC(=O)O)c1O [Example 121, 4-[3-Cyano-5-(2,6-dichloro-benzyl)-2-hydroxy-phenyl]-4-oxo-butyric acid]
230 | > 40000 | Cc1cccc(C)c1Cc1cc(C#N)c(O)c(C(=O)CCC(=O)O)c1 [Example 122, 4-[3-Cyano-5-(2,6-dimethyl-benzyl)-2-hydroxy-phenyl]-4-oxo-butyric acid]
120 | 3000 | Cc1cccc(Cl)c1Cc1cc(C#N)c(O)c(C(=O)CCC(=O)O)n1 [Example 123, 4-[6-(2-Chloro-6-methyl-benzyl)-4-cyano-3-hydroxy-pyridin-2-yl]-4-oxo-butyric acid]
160 | > 40000 | Cc1cc(C)c(Cc2cc(C#N)c(O)c(C(=O)CCC(=O)O)n2)c(C)c1 [Example 124, 4-[4-Cyano-3-hydroxy-6-(2,4,6-trimethyl-benzyl)-pyridin-2-yl]-4-oxo-butyric acid]
80 | 13000 | COc1cccc(Cl)c1Cc1cc(C#N)c(O)c(C(=O)CCC(=O)O)n1 [Example 125, 4-[6-(2-Chloro-6-methoxy-benzyl)-4-cyano-3-hydroxy-pyridin-2-yl]-4-oxo-butyric acid]

IC50 (recombinant human KDM5B) [nM] | IC50 (recombinant human KDM4A) [nM] | Compound
70 | 2900 | N#Cc1cc(Cc2c(Cl)cc(F)cc2Cl)nc(C(=O)CCC(=O)O)c1O [Example 126, 4-[4-Cyano-6-(2,6-dichloro-4-fluoro-benzyl)-3-hydroxy-pyridin-2-yl]-4-oxo-butyric acid]
60 | > 40000 | Cc1cc(Cl)c(Cc2cc(C#N)c(O)c(C(=O)CCC(=O)O)n2)c(Cl)c1 [Example 127, 4-[4-Cyano-6-(2,6-dichloro-4-methyl-benzyl)-3-hydroxy-pyridin-2-yl]-4-oxo-butyric acid]
380 | > 40000 | N#Cc1cc(NC(=O)c2c(Cl)cccc2Cl)nc(C(=O)CCC(=O)O)c1O [Example 128, 4-[4-Cyano-6-(2,6-dichloro-benzoylamino)-3-hydroxy-pyridin-2-yl]-4-oxo-butyric acid]
560 | > 40000 | Cc1cccc(C)c1C(=O)Nc1cc(C#N)c(O)c(C(=O)CCC(=O)O)n1 [Example 129, 4-[4-Cyano-6-(2,6-dimethyl-benzoylamino)-3-hydroxy-pyridin-2-yl]-4-oxo-butyric acid]
3200 | > 40000 | Cc1cccc(C)c1C(=O)N(C)c1cc(C#N)c(O)c(C(=O)CCC(=O)O)n1 [Example 130, 4-{4-Cyano-6-[(2,6-dimethyl-benzoyl)-N-methyl-amino]-3-hydroxy-pyridin-2-yl}-4-oxo-butyric acid]
50 | > 40000 | N#Cc1cc(Cc2c(Cl)cc(Cl)cc2Cl)cc(C(=O)CCC(=O)O)c1O [Example 131, 4-[3-Cyano-2-hydroxy-5-(2,4,6-trichloro-benzyl)-phenyl]-4-oxo-butyric acid]
310 | > 40000 | N#Cc1cc(Oc2ccccc2)cc(C(=O)CCC(=O)O)c1O [Example 132, 4-(3-Cyano-2-hydroxy-5-phenoxy-phenyl)-4-oxo-butyric acid]
1400 | > 40000 | Cc1cccc(C)c1Cc1cc(C(=O)CCC(=O)O)c(O)c(C#N)n1 [Example 133, 4-[2-Cyano-6-(2,6-dimethyl-benzyl)-3-hydroxy-pyridin-4-yl]-4-oxo-butyric acid]
120 | > 40000 | N#Cc1cc(Cc2c(Cl)ccc(F)c2Cl)cc(C(=O)CCC(=O)O)c1O [Example 134, 4-[3-Cyano-5-(2,6-dichloro-3-fluoro-benzyl)-2-hydroxy-phenyl]-4-oxo-butyric acid]
370 | > 40000 | N#Cc1cc(CCc2ccccc2)cc(C(=O)CCC(=O)O)c1O [Example 135, 4-(3-Cyano-2-hydroxy-5-phenethyl-phenyl)-4-oxo-butyric acid]
370 | > 40000 | N#Cc1cc(Oc2ccccc2Cl)cc(C(=O)CCC(=O)O)c1O [Example 136, 4-[5-(2-Chloro-phenoxy)-3-cyano-2-hydroxy-phenyl]-4-oxo-butyric acid]
820 | > 40000 | N#Cc1cc(Oc2ccc(Cl)cc2)cc(C(=O)CCC(=O)O)c1O [Example 137, 4-[5-(4-Chloro-phenoxy)-3-cyano-2-hydroxy-phenyl]-4-oxo-butyric acid]
390 | > 40000 | N#Cc1cc(Oc2cccc(Cl)c2)cc(C(=O)CCC(=O)O)c1O [Example 138, 4-[5-(3-Chloro-phenoxy)-3-cyano-2-hydroxy-phenyl]-4-oxo-butyric acid]
560 | > 40000 | Cc1ccc(Oc2cc(C#N)c(O)c(C(=O)CCC(=O)O)c2)cc1 [Example 139, 4-(3-Cyano-2-hydroxy-5-p-tolyloxy-phenyl)-4-oxo-butyric acid]
330 | > 40000 | Cc1ccccc1Oc1cc(C#N)c(O)c(C(=O)CCC(=O)O)c1 [Example 140, 4-(3-Cyano-2-hydroxy-5-o-tolyloxy-phenyl)-4-oxo-butyric acid]
250 | > 40000 | COc1ccc(Oc2cc(C#N)c(O)c(C(=O)CCC(=O)O)c2)cc1 [Example 141, 4-[3-Cyano-2-hydroxy-5-(4-methoxy-phenoxy)-phenyl]-4-oxo-butyric acid]
280 | > 40000 | N#Cc1cc(Oc2ccc(F)cc2)cc(C(=O)CCC(=O)O)c1O [Example 142, 4-[3-Cyano-5-(4-fluoro-phenoxy)-2-hydroxy-phenyl]-4-oxo-butyric acid]
